Measured values as given in PubChem BioAssay AID1845211 (Molecular Pharmacology Branch, DTP, NCI, 2023).
“And” between values parts separate entries of the source, which are not always exact repeats. Identical values can stand only once.

Tested on: NCI-H322M multicellular tumor spheroids, viability (% test/control)
Experiment: Anticancer human tumor NCI-H322M cell line growth inhibition;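 as to viability, T/C: spheroids exposed to compound for seven days before readout; 100% = DMSO vehicle control wells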
Details: for viability, T/C: stronger effect = lower value
Procedure, shortened: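 Complex spheroids of malignant cells with endothelial cells and mesenchymal stem cells; agents alone or combined, from near clinical Cmax (or 10 microM if unknown) down in half-log steps, 0.25% DMSO final.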

[1] = curve of first compound, second compound 0.003 µM
[2] = second compound 0.003 µM, first compound 0.0316 µM
[3] = second compound 0.003 µM, first compound 0.1 µM
[4] = second compound 0.003 µM, first compound 0.316 µM
[5] = second compound 0.003 µM, first compound 1 µM
[6] = second compound 0.003 µM, first compound 3.16 µM
[7] = second compound 0.003 µM, first compound 10 µM

CC(C)n1c(=O)n(C)c2cnc3cc(F)c(-c4ccc(OCCCN5CCCCC5)nc4)cc3c21 + Cn1nnc2c(C(N)=O)ncn2c1=O
IC50 (curve of first compound, second compound 1 µM): > 10 µM | IC50 (curve of first compound, second compound 3.16 µM): > 10 µM | IC50 (curve of first compound, second compound 10 µM): > 10 µM | IC50 (curve of first compound, second compound 31.6 µM): > 10 µM | IC50 (curve of first compound, second compound 100 µM): > 10 µM | viability, T/C (second compound 1 µM, first compound 0.0316 µM): 86.7% | viability, T/C (second compound 1 µM, first compound 0.1 µM): 82.1% | viability, T/C (second compound 1 µM, first compound 0.316 µM): 85% | viability, T/C (second compound 1 µM, first compound 1 µM): 95.4% | viability, T/C (second compound 1 µM, first compound 3.16 µM): 92% | viability, T/C (second compound 1 µM, first compound 10 µM): 77.9% | viability, T/C (second compound 3.16 µM, first compound 0.0316 µM): 83.8% | viability, T/C (second compound 3.16 µM, first compound 0.1 µM): 70.6% | viability, T/C (second compound 3.16 µM, first compound 0.316 µM): 83.1% | viability, T/C (second compound 3.16 µM, first compound 1 µM): 78.7% | viability, T/C (second compound 3.16 µM, first compound 3.16 µM): 81.3% | viability, T/C (second compound 3.16 µM, first compound 10 µM): 82.5% | viability, T/C (second compound 10 µM, first compound 0.0316 µM): 76.8% | viability, T/C (second compound 10 µM, first compound 0.1 µM): 84.7% | viability, T/C (second compound 10 µM, first compound 0.316 µM): 89.4% | viability, T/C (second compound 10 µM, first compound 1 µM): 98.5% | viability, T/C (second compound 10 µM, first compound 3.16 µM): 96.4% | viability, T/C (second compound 10 µM, first compound 10 µM): 79.1% | viability, T/C (second compound 31.6 µM, first compound 0.0316 µM): 94.9% | viability, T/C (second compound 31.6 µM, first compound 0.1 µM): 74.8% | viability, T/C (second compound 31.6 µM, first compound 0.316 µM): 81.9% | viability, T/C (second compound 31.6 µM, first compound 1 µM): 85.2% | viability, T/C (second compound 31.6 µM, first compound 3.16 µM): 98.2% | viability, T/C (second compound 31.6 µM, first compound 10 µM): 84.7% | viability, T/C (second compound 100 µM, first compound 0.0316 µM): 85% | viability, T/C (second compound 100 µM, first compound 0.1 µM): 93.4% | viability, T/C (second compound 100 µM, first compound 0.316 µM): 82.1% | viability, T/C (second compound 100 µM, first compound 1 µM): 88.5% | viability, T/C (second compound 100 µM, first compound 3.16 µM): 83% | viability, T/C (second compound 100 µM, first compound 10 µM): 87%

Cc1cc(C)c(CNC(=O)c2cc(-c3ccc(CN4CCOCC4)cc3)cc3c2cnn3C2CCCC2)c(=O)[nH]1 + COc1cc2c(cc1O)CCNC21CSC2c3c(OC(C)=O)c(C)c4c(c3C(COC1=O)N1C(O)C3Cc5cc(C)c(OC)c(O)c5C(C21)N3C)OCO4
IC50 (curve of first compound, second compound 30 pM): > 10 µM | IC50 (curve of first compound, second compound 94.9 pM): > 10 µM | IC50 (curve of first compound, second compound 0.0003 µM): > 10 µM | IC50 (curve of first compound, second compound 0.000949 µM): > 10 µM | IC50 [1]: < 0.0316 µM | viability, T/C (second compound 30 pM, first compound 0.0316 µM): 84.6% | viability, T/C (second compound 30 pM, first compound 0.1 µM): 97.8% | viability, T/C (second compound 30 pM, first compound 0.316 µM): 87.1% | viability, T/C (second compound 30 pM, first compound 1 µM): 97.9% | viability, T/C (second compound 30 pM, first compound 3.16 µM): 99.6% | viability, T/C (second compound 30 pM, first compound 10 µM): 114% | viability, T/C (second compound 94.9 pM, first compound 0.0316 µM): 92.8% | viability, T/C (second compound 94.9 pM, first compound 0.1 µM): 90.9% | viability, T/C (second compound 94.9 pM, first compound 0.316 µM): 92% | viability, T/C (second compound 94.9 pM, first compound 1 µM): 84.4% | viability, T/C (second compound 94.9 pM, first compound 3.16 µM): 89.5% | viability, T/C (second compound 94.9 pM, first compound 10 µM): 130% | viability, T/C (second compound 0.0003 µM, first compound 0.0316 µM): 96.6% | viability, T/C (second compound 0.0003 µM, first compound 0.1 µM): 98.1% | viability, T/C (second compound 0.0003 µM, first compound 0.316 µM): 98.2% | viability, T/C (second compound 0.0003 µM, first compound 1 µM): 95.3% | viability, T/C (second compound 0.0003 µM, first compound 3.16 µM): 108% | viability, T/C (second compound 0.0003 µM, first compound 10 µM): 126% | viability, T/C (second compound 0.000949 µM, first compound 0.0316 µM): 92.4% | viability, T/C (second compound 0.000949 µM, first compound 0.1 µM): 92.2% | viability, T/C (second compound 0.000949 µM, first compound 0.316 µM): 87.9% | viability, T/C (second compound 0.000949 µM, first compound 1 µM): 96.2% | viability, T/C (second compound 0.000949 µM, first compound 3.16 µM): 82% | viability, T/C (second compound 0.000949 µM, first compound 10 µM): 97.8% | viability, T/C [2]: 17.8% | viability, T/C [3]: 8.17% | viability, T/C [4]: 12.3% | viability, T/C [5]: 6.05% | viability, T/C [6]: 2.7% | viability, T/C [7]: 3.51%

CC(C)n1c(=O)n(C)c2cnc3cc(F)c(-c4ccc(OCCCN5CCCCC5)nc4)cc3c21
viability, T/C (compound 0.0316 µM): 60.1% and 96% and 88.1% | viability, T/C (compound 0.1 µM): 80.2% and 82.2% and 112% | viability, T/C (compound 0.316 µM): 70.4% and 78.7% and 83.2% | viability, T/C (compound 1 µM): 73.2% and 102% and 112% | viability, T/C (compound 3.16 µM): 76.8% and 85.2% and 87.2% | viability, T/C (compound 10 µM): 56.8% and 79.3% and 85% | IC50 (curve of compound): > 10 µM

COc1cc(C)[nH]c(=O)c1CN1CCc2c(Cl)cc(C(OC)C3COC3)c(Cl)c2C1=O (configuration not stated) + CC[C@@]1(O)C(=O)OCc2c1cc1n(c2=O)Cc2cc3c(CN(C)C)c(O)ccc3nc2-1
IC50 [1]: > 10 µM | IC50 (curve of first compound, second compound 0.00949 µM): > 10 µM | IC50 (curve of first compound, second compound 0.03 µM): > 10 µM | IC50 (curve of first compound, second compound 0.0949 µM): > 10 µM | IC50 (curve of first compound, second compound 0.3 µM): 9.8 µM | viability, T/C [2]: 79.2% | viability, T/C [3]: 75.4% | viability, T/C [4]: 74.4% | viability, T/C [5]: 73.1% | viability, T/C [6]: 84.3% | viability, T/C [7]: 88% | viability, T/C (second compound 0.00949 µM, first compound 0.0316 µM): 83.9% | viability, T/C (second compound 0.00949 µM, first compound 0.1 µM): 65.2% | viability, T/C (second compound 0.00949 µM, first compound 0.316 µM): 65.2% | viability, T/C (second compound 0.00949 µM, first compound 1 µM): 74% | viability, T/C (second compound 0.00949 µM, first compound 3.16 µM): 78.6% | viability, T/C (second compound 0.00949 µM, first compound 10 µM): 89.6% | viability, T/C (second compound 0.03 µM, first compound 0.0316 µM): 69% | viability, T/C (second compound 0.03 µM, first compound 0.1 µM): 68.8% | viability, T/C (second compound 0.03 µM, first compound 0.316 µM): 72.8% | viability, T/C (second compound 0.03 µM, first compound 1 µM): 69.3% | viability, T/C (second compound 0.03 µM, first compound 3.16 µM): 73.4% | viability, T/C (second compound 0.03 µM, first compound 10 µM): 71.7% | viability, T/C (second compound 0.0949 µM, first compound 0.0316 µM): 72% | viability, T/C (second compound 0.0949 µM, first compound 0.1 µM): 66.9% | viability, T/C (second compound 0.0949 µM, first compound 0.316 µM): 70.8% | viability, T/C (second compound 0.0949 µM, first compound 1 µM): 58.1% | viability, T/C (second compound 0.0949 µM, first compound 3.16 µM): 65.4% | viability, T/C (second compound 0.0949 µM, first compound 10 µM): 71.2% | viability, T/C (second compound 0.3 µM, first compound 0.0316 µM): 60.5% | viability, T/C (second compound 0.3 µM, first compound 0.1 µM): 49.9% | viability, T/C (second compound 0.3 µM, first compound 0.316 µM): 48.5% | viability, T/C (second compound 0.3 µM, first compound 1 µM): 48.5% | viability, T/C (second compound 0.3 µM, first compound 3.16 µM): 54.9% | viability, T/C (second compound 0.3 µM, first compound 10 µM): 50.3%
